Experimental data taken from ChEMBL document CHEMBL3124768, “Substituted imidazothiazoles as inhibitors of viral polymerase” (ACS Med Chem Lett, 2014).

Key:
Hepatitis C virus = experiment: Antiviral activity against Hepatitis C virus genotype 1b isolate Con1 assessed as inhibition of HCV replicon-encoded Renilla luciferase reporter activity after 72 hrs by cell-based replicon assay; format: functional, organism-based, Hepacivirus hominis; settings: isolate Con1, 72 h
[1] = Inhibition of HCV genotype 1b isolate BK truncated NS5B polymerase lacking C-terminal 21 amino acids assessed as inhibition of 33P-GTP incorporation using Poly(rC) template by scintillation counting analysis; set-up: species or system Hepatitis C virus (isolate BK)

In the case of CNC(=O)c1c(-c2ccc(F)cc2)nc2sc(-c3cc(C(=O)NC(C)(C)c4ncccn4)ccc3C)cn12, the EC50 (Hepatitis C virus) is reported as less than 0.25 µM and the IC50 [1] is reported as 1 µM.
In the case of CNC(=O)c1c(-c2ccc(F)cc2)nc2sc(-c3cc(C(=O)NC(C)(C)c4ccccc4)ccc3C)cn12, the EC50 (Hepatitis C virus) is reported as less than 0.25 µM and the IC50 [1] is reported as less than 0.25 µM.
CNC(=O)c1c(-c2ccc(F)cc2)nc2sc(-c3cccc(C(=O)NC(C)(C)c4ccccc4)c3)cn12 gave an EC50 (Hepatitis C virus) of less than 0.25 µM and an IC50 [1] of less than 0.25 µM.
Compound CNC(=O)c1c(-c2ccc(F)cc2)nc2sc(-c3cccc(C(=O)NC4(c5ccccn5)CC4)c3)cn12 has an EC50 (Hepatitis C virus) of less than 0.25 µM and an IC50 [1] of less than 0.25 µM.
Compound CNC(=O)c1c(-c2ccc(F)cc2)nc2sc(-c3cccc(C(=O)NC4(c5ccccc5)CC4)c3)cn12 has an EC50 (Hepatitis C virus) of less than 0.25 µM and an IC50 [1] of 1 µM.
In the case of CNC(=O)c1c(-c2ccc(F)cc2)nc2sc(-c3cc(C(=O)N[C@@H](C)c4ccccc4)ccc3C)cn12, the EC50 (Hepatitis C virus) is reported as less than 0.25 µM and the IC50 [1] is reported as less than 0.25 µM.
Compound CNC(=O)c1c(-c2ccc(F)cc2)nc2sc(-c3cc(C(=O)NC(C)(C)C(=O)OC)ccc3C)cn12 has an EC50 (Hepatitis C virus) of less than 0.25 µM and an IC50 [1] of 1 µM.
CNC(=O)c1c(-c2ccc(F)cc2)nc2sc(-c3cc(C(=O)NC4(C(C)C)CC4)ccc3C)cn12 showed an EC50 (Hepatitis C virus) of less than 0.25 µM and an IC50 [1] of 1 µM.
For CNC(=O)c1c(-c2ccc(F)cc2)nc2sc(-c3cc(C(=O)NC(C)(C)c4ccccc4)ccc3OC)cn12, the EC50 (Hepatitis C virus) was less than 0.25 µM and the IC50 [1] was less than 0.25 µM.
CNC(=O)c1c(-c2ccc(F)cc2)nc2sc(-c3cc(C(=O)NC(C)(C)c4ccccc4)c(OC)cc3C)cn12 showed an EC50 (Hepatitis C virus) of less than 0.25 µM and an IC50 [1] of less than 0.25 µM.
